Values quoted from earlier work, collected in paper PMC11686138 (Nature Communications, 2024).

Molecular target: CLDN4
Conditions: reported KD

Sequence: NSSYSGNYYSIL [Cpe30 MT2]
- Kd: 1.97 nM
